The source of these data is the NIST ThermoML archive (doi:10.1016/j.fluid.2018.03.018).

The nature of this series: xn = mol fraction of the nth substance listed. The settings on record: 101 kPa, Liquid, Vibrating tube method.

Numbers after ± are expanded uncertainties.

A word on the mass density: it is mass per unit of volume. `C[P+](c1ccccc1)(c1ccccc1)c1ccccc1.[Br-]` [methyltriphenylphosphonium bromide] + OCCO: the mass density (298.15 K, x1 = 0.25) is recorded as 1249.1 ± 1.1 kg/m3; the mass density (303.15 K, x1 = 0.25) was 1245.7 ± 1.1 kg/m3; the mass density (308.15 K, x1 = 0.25) worked out at 1242.2 ± 1.1 kg/m3; the mass density (313.15 K, x1 = 0.25) stood at 1238.8 ± 1.1 kg/m3; the mass density (318.15 K, x1 = 0.25) is on record as 1235.4 ± 1.1 kg/m3; the mass density (323.15 K, x1 = 0.25) worked out at 1231.9 ± 1.1 kg/m3.
Consider `CC[N+](CC)(CC)CC.[Cl-]` [tetraethylammonium chloride] + OCCO, for which the mass density (293.15 K, x1 = 0.3333) is reported as 1052.3 ± 1 kg/m3; the mass density (298.15 K, x1 = 0.3333) is 1049.4 ± 1 kg/m3; the mass density (303.15 K, x1 = 0.3333) turned out to be 1046.6 ± 1 kg/m3; the mass density (308.15 K, x1 = 0.3333) worked out at 1043.7 ± 1 kg/m3; the mass density (313.15 K, x1 = 0.3333) was determined as 1040.9 ± 1 kg/m3; the mass density (318.15 K, x1 = 0.3333) was determined as 1038.1 ± 1 kg/m3. For the same molecule, the mass density (323.15 K, x1 = 0.3333) is given as 1035.3 ± 1 kg/m3; the mass density (328.15 K, x1 = 0.3333) is given as 1032.5 ± 1 kg/m3; the mass density (333.15 K, x1 = 0.3333) is 1029.7 ± 1 kg/m3; the mass density (338.15 K, x1 = 0.3333) came out at 1026.9 ± 1 kg/m3; the mass density (343.15 K, x1 = 0.3333) is 1024.1 ± 1 kg/m3.
In the case of `CC[N+](CC)(CC)CC.[Cl-]` [tetraethylammonium chloride] + OCC(O)CO, the mass density (293.15 K, x1 = 0.3333) is 1124 ± 1 kg/m3; the mass density (298.15 K, x1 = 0.3333) was 1121 ± 1 kg/m3; the mass density (303.15 K, x1 = 0.3333) came out at 1118.1 ± 1 kg/m3; the mass density (308.15 K, x1 = 0.3333) was 1115.1 ± 1 kg/m3; the mass density (313.15 K, x1 = 0.3333) is 1112.3 ± 1 kg/m3; the mass density (318.15 K, x1 = 0.3333) stood at 1109.4 ± 1 kg/m3. Besides, the mass density reads like this: (323.15 K, x1 = 0.3333) 1106.6 ± 1 kg/m3; (328.15 K, x1 = 0.3333) 1103.8 ± 1 kg/m3; (333.15 K, x1 = 0.3333) 1101 ± 1 kg/m3; (338.15 K, x1 = 0.3333) 1098.2 ± 1 kg/m3; (343.15 K, x1 = 0.3333) 1095.4 ± 1 kg/m3.
As to `C[P+](c1ccccc1)(c1ccccc1)c1ccccc1.[Br-]` [methyltriphenylphosphonium bromide] + OCC(O)CO, the mass density by setting is: (298.15 K, x1 = 0.25) 1295.8 ± 1.1 kg/m3; (303.15 K, x1 = 0.25) 1292.4 ± 1.1 kg/m3; (308.15 K, x1 = 0.25) 1288.9 ± 1.1 kg/m3; (313.15 K, x1 = 0.25) 1285.3 ± 1.1 kg/m3; (318.15 K, x1 = 0.25) 1281.7 ± 1.1 kg/m3; (323.15 K, x1 = 0.25) 1278.1 ± 1.1 kg/m3.
